Data as given in US8455475B2 (Gruenenthal GmbH, priority 2009, dated 2013).

biological target: T1, rat B1R (bradykinin receptor 1) (Rattus norvegicus, UniProt P97583); assay: FLIPR Ca2+ assay (Fluo-4) on CHO K1 cells stably transfected with the B1R gene of the rat (rB1R cells): % inhibition at 10 μM / IC50, agonist Des-Arg9-bradykinin; format: cell-based; details: CHO-K1, rat B1R
T1 construct: expressed in transfected cells; host or cells: CHO K1 cells
T1 sequence (P97583 1-337): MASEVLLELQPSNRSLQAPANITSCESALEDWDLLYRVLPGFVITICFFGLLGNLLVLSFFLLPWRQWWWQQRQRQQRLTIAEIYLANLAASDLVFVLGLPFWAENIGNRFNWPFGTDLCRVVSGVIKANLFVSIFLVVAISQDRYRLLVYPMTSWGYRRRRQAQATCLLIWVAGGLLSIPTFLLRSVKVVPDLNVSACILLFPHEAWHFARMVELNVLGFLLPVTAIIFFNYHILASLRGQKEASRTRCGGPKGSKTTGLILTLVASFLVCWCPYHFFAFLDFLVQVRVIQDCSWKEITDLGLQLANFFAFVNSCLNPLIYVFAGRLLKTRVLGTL
How it was run: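 Loading with Fluo-4 occurs for 60 min at 37 °C, or alternatively in buffer A, before FLIPR measurement. Compounds are applied, incubated 10–20 min, and then the EC80 agonist is added. Antagonism appears as reduced peak Ca2+ signal relative to maximal inhibition.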

inhibition at 10 µM [%] | SMILES
70 | CCC(CC)CN1CCC2(CC1)CCN(C(=O)c1ccc3c(c1)C(NC(=O)c1cccc(Cl)c1Cl)CC3)C2 (stereo not drawn) [IND_CC-748, 2,3-Dichloro-N-[6-[8-(2-ethyl-butyl)-2,8-diazaspiro[4.5]decane-2-carbonyl]-2,3-dihydro-1H-inden-1-yl]-benzamide]
70 | O=C(NC1CCc2ccc(C(=O)N3CCC4(CCN(CCc5ccccc5)CC4)C3)cc21)c1cccc(Cl)c1Cl (stereo not drawn) [IND_CC-749, 2,3-Dichloro-N-[6-(8-phenethyl-2,8-diazaspiro[4.5]decane-2-carbonyl)-2,3-dihydro-1H-inden-1-yl]-benzamide]
99 | O=C(NC1CCc2ccc(C(=O)N3CCC4(CCN(CCCc5cccc(F)c5)CC4)C3)cc21)c1cccc(Cl)c1Cl (stereo not drawn) [IND_CC-750, 2,3-Dichloro-N-[6-[8-[3-(3-fluorophenyl)-propyl]-2,8-diazaspiro[4.5]decane-2-carbonyl]-2,3-dihydro-1H-inden-1-yl]-benzamide]
98 | O=C(NC1CCc2ccc(C(=O)N3CCC4(CCN(CCCc5ccc(F)cc5)CC4)C3)cc21)c1cccc(Cl)c1Cl (stereo not drawn) [IND_CC-751, 2,3-Dichloro-N-[6-[8-[3-(4-fluorophenyl)-propyl]-2,8-diazaspiro[4.5]decane-2-carbonyl]-2,3-dihydro-1H-inden-1-yl]-benzamide]
69 | CCn1cc(CN2CCC3(CC2)CCN(C(=O)c2ccc4c(c2)C(NC(=O)c2cccc(Cl)c2Cl)CC4)CC3)c(C)n1 (stereo not drawn) [IND_CC-752, 2,3-Dichloro-N-[6-[9-[(1-ethyl-3-methyl-1H-pyrazol-4-yl)-methyl]-3,9-diazaspiro[5.5]undecane-3-carbonyl]-2,3-dihydro-1H-inden-1-yl]-benzamide]
90 | CN(C)c1ncc(CN2CCC3(CC2)CCN(C(=O)c2ccc4c(c2)C(NC(=O)c2cccc(Cl)c2Cl)CC4)CC3)cn1 (stereo not drawn) [IND_CC-753, 2,3-Dichloro-N-[6-[9-[(2-dimethylamino-pyrimidin-5-yl)-methyl]-3,9-diazaspiro[5.5]undecane-3-carbonyl]-2,3-dihydro-1H-inden-1-yl]-benzamide]
87 | O=C(NC1CCc2ccc(C(=O)N3CCC4(CCN(Cc5ccc6ncccc6c5)CC4)CC3)cc21)c1cccc(Cl)c1Cl (stereo not drawn) [IND_CC-754, 2,3-Dichloro-N-[6-[9-(quinolin-6-yl-methyl)-3,9-diazaspiro[5.5]undecane-3-carbonyl]-2,3-dihydro-1H-inden-1-yl]-benzamide]
92 | O=C(NC1CCc2ccc(C(=O)N3CCC4(CCN(Cc5ccc6nccnc6c5)CC4)CC3)cc21)c1cccc(Cl)c1Cl (stereo not drawn) [IND_CC-755, 2,3-Dichloro-N-[6-[9-(quinoxalin-6-yl-methyl)-3,9-diazaspiro[5.5]undecane-3-carbonyl]-2,3-dihydro-1H-inden-1-yl]-benzamide]
104 | Cn1nnc2cc(CN3CCC4(CC3)CCN(C(=O)c3ccc5c(c3)C(NC(=O)c3cccc(Cl)c3Cl)CC5)CC4)ccc21 (stereo not drawn) [IND_CC-756, 2,3-Dichloro-N-[6-[9-[(1-methyl-1H-benzotriazol-5-yl)-methyl]-3,9-diazaspiro[5.5]undecane-3-carbonyl]-2,3-dihydro-1H-inden-1-yl]-benzamide]
52 | CC(C)CN1CCC2(CC1)CCN(C(=O)c1ccc3c(c1)C(NC(=O)c1cccc(Cl)c1Cl)CC3)CC2 (stereo not drawn) [IND_CC-757, 2,3-Dichloro-N-[6-[9-(2-methyl-propyl)-3,9-diazaspiro[5.5]undecane-3-carbonyl]-2,3-dihydro-1H-inden-1-yl]-benzamide]
86 | O=C(NC1CCc2ccc(C(=O)N3CCC4(CCN(CCc5ccccc5)CC4)CC3)cc21)c1cccc(Cl)c1Cl (stereo not drawn) [IND_CC-758, 2,3-Dichloro-N-[6-(9-phenethyl-3,9-diazaspiro[5.5]undecane-3-carbonyl)-2,3-dihydro-1H-inden-1-yl]-benzamide]
78 | O=C(NC1CCc2ccc(C(=O)N3CCC4(CCN(CCCc5cccc(F)c5)CC4)CC3)cc21)c1cccc(Cl)c1Cl (stereo not drawn) [IND_CC-759, 2,3-Dichloro-N-[6-[9-[3-(3-fluorophenyl)-propyl]-3,9-diazaspiro[5.5]undecane-3-carbonyl]-2,3-dihydro-1H-inden-1-yl]-benzamide]
93 | O=C(NC1CCc2ccc(C(=O)N3CCC4(CCN(CCCc5ccc(F)cc5)CC4)CC3)cc21)c1cccc(Cl)c1Cl (stereo not drawn) [IND_CC-760, 2,3-Dichloro-N-[6-[9-[3-(4-fluorophenyl)-propyl]-3,9-diazaspiro[5.5]undecane-3-carbonyl]-2,3-dihydro-1H-inden-1-yl]-benzamide]
57 | Cc1cccc(Cl)c1C(=O)NC1CCc2ccc(C(=O)N3CCC4(CCN(Cc5c(C)nn(C)c5C)CC4)C3)cc21 (stereo not drawn) [IND_CC-761, 2-Chloro-6-methyl-N-[6-[8-[(1,3,5-trimethyl-1H-pyrazol-4-yl)-methyl]-2,8-diazaspiro[4.5]decane-2-carbonyl]-2,3-dihydro-1H-inden-1-yl]-benzamide]
55 | CCn1cc(CN2CCC3(CC2)CCN(C(=O)c2ccc4c(c2)C(NC(=O)c2c(C)cccc2Cl)CC4)C3)c(C)n1 (stereo not drawn) [IND_CC-762, 2-Chloro-N-[6-[8-[(1-ethyl-3-methyl-1H-pyrazol-4-yl)-methyl]-2,8-diazaspiro-[4.5]decane-2-carbonyl]-2,3-dihydro-1H-inden-1-yl]-6-methyl-benzamide]
74 | Cc1cccc(Cl)c1C(=O)NC1CCc2ccc(C(=O)N3CCC4(CCN(Cc5cnc(N(C)C)nc5)CC4)C3)cc21 (stereo not drawn) [IND_CC-763, 2-Chloro-N-[6-[8-[(2-dimethylamino-pyrimidin-5-yl)-methyl]-2,8-diazaspiro-[4.5]decane-2-carbonyl]-2,3-dihydro-1H-inden-1-yl]-6-methyl-benzamide]
71 | Cc1cccc(Cl)c1C(=O)NC1CCc2ccc(C(=O)N3CCC4(CCN(Cc5ccc6ncccc6c5)CC4)C3)cc21 (stereo not drawn) [IND_CC-764, 2-Chloro-6-methyl-N-[6-[8-(quinolin-6-yl-methyl)-2,8-diazaspiro[4.5]decane-2-carbonyl]-2,3-dihydro-1H-inden-1-yl]-benzamide]
105 | Cc1cccc(Cl)c1C(=O)NC1CCc2ccc(C(=O)N3CCC4(CCN(Cc5ccc6nccnc6c5)CC4)C3)cc21 (stereo not drawn) [IND_CC-765, 2-Chloro-6-methyl-N-[6-[8-(quinoxalin-6-yl-methyl)-2,8-diazaspiro[4.5]-decane-2-carbonyl]-2,3-dihydro-1H-inden-1-yl]-benzamide]
93 | Cc1cccc(Cl)c1C(=O)NC1CCc2ccc(C(=O)N3CCC4(CCN(Cc5ccc6c(c5)nnn6C)CC4)C3)cc21 (stereo not drawn) [IND_CC-766, 2-Chloro-6-methyl-N-[6-[8-[(1-methyl-1H-benzotriazol-5-yl)-methyl]-2,8-diazaspiro[4.5]decane-2-carbonyl]-2,3-dihydro-1H-inden-1-yl]-benzamide]
73 | Cc1cccc(Cl)c1C(=O)NC1CCc2ccc(C(=O)N3CCC4(CCN(CC(C)C)CC4)C3)cc21 (stereo not drawn) [IND_CC-767, 2-Chloro-6-methyl-N-[6-[8-(2-methyl-propyl)-2,8-diazaspiro[4.5]decane-2-carbonyl]-2,3-dihydro-1H-inden-1-yl]-benzamide]
79 | CCC(CC)CN1CCC2(CC1)CCN(C(=O)c1ccc3c(c1)C(NC(=O)c1c(C)cccc1Cl)CC3)C2 (stereo not drawn) [IND_CC-768, 2-Chloro-N-[6-[8-(2-ethyl-butyl)-2,8-diazaspiro[4.5]decane-2-carbonyl]-2,3-dihydro-1H-inden-1-yl]-6-methyl-benzamide]
